We go through 14 compounds from US8802663B2, “Pyrazole oxadiazole derivatives as S1P1 agonists” (Merck Serono SA, priority 2009, dated 2014).

The target of the test is S1P1 (Homo sapiens (Human), UniProt P21453). The test can be described thus: 35S-GTPγS binding, membranes from CHO cells expressing S1P1. The test is classed as biochemical. As to conditions: CHO cell membranes. On the technique in general: GTPγS is a poorly hydrolysed GTP analogue; its binding reports G protein activation.

Structures can show the parent of a compound that is named as a salt.

Chain of S1P1 (P21453 whole entry, species assumed): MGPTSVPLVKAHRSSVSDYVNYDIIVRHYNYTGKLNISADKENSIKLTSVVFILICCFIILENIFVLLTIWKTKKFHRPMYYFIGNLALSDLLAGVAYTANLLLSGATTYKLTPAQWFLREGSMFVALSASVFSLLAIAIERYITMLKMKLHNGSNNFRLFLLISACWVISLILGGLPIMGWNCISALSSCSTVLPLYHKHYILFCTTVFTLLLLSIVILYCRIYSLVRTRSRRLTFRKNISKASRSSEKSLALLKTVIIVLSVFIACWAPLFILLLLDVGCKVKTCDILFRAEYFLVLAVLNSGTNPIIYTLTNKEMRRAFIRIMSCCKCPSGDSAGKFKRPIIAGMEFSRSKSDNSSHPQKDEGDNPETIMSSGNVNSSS

`FC(F)(F)c1cccc(-c2noc(-c3cnn(CC4CC4)c3-c3ccncc3)n2)c1` [Example 113, 5-(1-(cyclopropylmethyl)-5-(pyridin-4-yl)-1H-pyrazol-4-yl)-3-(3-(trifluoromethyl)phenyl)-1,2,4-oxadiazole]: the EC50 (as a rule, the concentration giving half of the maximal effect) is 24 nM. In other words, the double-digit nanomolar range.
`COCc1c(-c2nc(-c3ccc(Cn4cccn4)cc3)no2)cnn1C1CCCCC1` [Example 114, 3-(4-((1H-pyrazol-1-yl)methyl)phenyl)-5-(1-cyclohexyl-5-(methoxymethyl)-1H-pyrazol-4-yl)-1,2,4-oxadiazole] yielded an EC50 of 94 nM.
Then `COCCc1c(-c2nc(-c3ccc(CO)cc3)no2)cnn1C1CCCCC1` [Example 115, (4-(5-(1-cyclohexyl-5-(2-methoxyethyl)-1H-pyrazol-4-yl)-1,2,4-oxadiazol-3-yl)phenyl)methanol], with 134 nM; and `COCc1c(-c2nc(-c3ccc4c(c3)CCNC4)no2)cnn1C1CCCCC1` [Example 116, 5-(1-cyclohexyl-5-(methoxymethyl)-1H-pyrazol-4-yl)-3-(1,2,3,4-tetrahydroisoquinolin-6-yl)-1,2,4-oxadiazole], with 86 nM.
`COCc1c(-c2nc(-c3ccc4c(c3)CN(CCC(=O)O)CC4)no2)cnn1C1CCCCC1` [Example 118, 3-(7-(5-(1-cyclohexyl-5-(methoxymethyl)-1H-pyrazol-4-yl)-1,2,4-oxadiazol-3-yl)-3,4-dihydroisoquinolin-2(1H)-yl)propanoic acid] had an EC50 of 398 nM.
As for `COCc1c(-c2nc(-c3ccc(Cn4ccnc4)cc3)no2)cnn1C1CCCCC1` [Example 119, 3-(4-((1H-imidazol-1-yl)methyl)phenyl)-5-(1-cyclohexyl-5-(methoxymethyl)-1H-pyrazol-4-yl)-1,2,4-oxadiazole], the figure is 66 nM; as for `COCc1c(-c2nc(-c3ccc(CNC(C)C)cc3)no2)cnn1C1CCCCC1` [Example 121, N-(4-(5-(1-cyclohexyl-5-(methoxymethyl)-1H-pyrazol-4-yl)-1,2,4-oxadiazol-3-yl)benzyl)propan-2-amine], 40 nM; as for `COCc1c(-c2nc(-c3ccc(CNCC(O)CO)cc3)no2)cnn1C1CCCCC1` (centres unmarked) [Example 122, 3-(4-(5-(1-cyclohexyl-5-(methoxymethyl)-1H-pyrazol-4-yl)-1,2,4-oxadiazol-3-yl)benzylamino)propane-1,2-diol], 157 nM.
Then `COCc1c(-c2nc(-c3ccc(O)cc3)no2)cnn1C1CCCCC1` [Example 123, 4-(5-(1-cyclohexyl-5-(methoxymethyl)-1H-pyrazol-4-yl)-1,2,4-oxadiazol-3-yl)phenol], with 82 nM; and `COCc1c(-c2nc(-c3ccc(N)nc3)no2)cnn1C1CCCCC1` [Example 124, 5-(5-(1-cyclohexyl-5-(methoxymethyl)-1H-pyrazol-4-yl)-1,2,4-oxadiazol-3-yl)pyridin-2-amine], with 382 nM; and `COCc1c(-c2nc(-c3cccc(O)c3)no2)cnn1C1CCCCC1` [Example 126, 3-(5-(1-cyclohexyl-5-(methoxymethyl)-1H-pyrazol-4-yl)-1,2,4-oxadiazol-3-yl)phenol], with 168 nM.
Then `COCc1c(-c2nc(-c3ccc(CCN(C)C)cc3)no2)cnn1C1CCCCC1` [Example 127, 2-(4-(5-(1-cyclohexyl-5-(methoxymethyl)-1H-pyrazol-4-yl)-1,2,4-oxadiazol-3-yl)phenyl)-N,N-dimethylethanamine], with 172 nM; and `COCc1c(-c2nc(-c3ccc(CCNC(C)C)cc3)no2)cnn1C1CCCCC1` [Example 128, N-(4-(5-(1-cyclohexyl-5-(methoxymethyl)-1H-pyrazol-4-yl)-1,2,4-oxadiazol-3-yl)phenethyl)propan-2-amine formate], with 158 nM.
Compound `COCc1c(-c2nc(-c3ccc(CCN4CCC(C(=O)OC)CC4)cc3)no2)cnn1C1CCCCC1` [Example 129, Methyl 1-(4-(5-(1-cyclohexyl-5-(methoxymethyl)-1H-pyrazol-4-yl)-1,2,4-oxadiazol-3-yl)phenethyl)piperidine-4-carboxylate] gave a concentration for a half-maximal effect (EC50) of 438 nM.
